Test system: U87 tumor
Experiment: Biodistribution ([^18F]JHU1221823), carrier / specific activity study
Type: in vivo, mouse
Description: Biodistribution of Representative Compounds

[1] = mean (one mouse), NOD/SCID, U87 tumor, Carrier 700, 60 min post injection
[2] = mean, + 0.05 nmole carrier, 60 min post injection
[3] = mean, + 0.1 nmole carrier, 60 min post injection
[4] = mean, + 0.25 nmole carrier, 60 min post injection
[5] = mean, NOD/SCID, U87 tumor, Carrier 350 (350 mCi/μmol), 60 min post injection
[6] = mean, Nude mice, U87 tumor, Baseline (~5000 mCi/μmol), 60 min post injection
[7] = mean, Nude mice, U87 tumor, Carrier 350 (350 mCi/μmol), 60 min post injection
[8] = mean, Nude mice, U87 tumor, Carrier 700, 60 min post injection
[9] = mean, U87 tumor, Baseline, second block (stands before <NOD/SCID> heading), 60 min post injection

N#C[C@@H]1CCCN1C(=O)CNC(=O)c1ccnc2ccc(OCCCNC(=O)CCOCCOCCOCCOCCNC(=O)[C@H](CCCCNC(=O)c3ccc([18F])nc3)NC(=O)CN3CCN(CC(=O)O)CCN(CC(=O)O)CCN(CC(=O)O)CC3)cc12 [[^18F]JHU1221823]
Bladder % ID/g [1]: 8.20 % ID/g | Blood % ID/g [1]: 5.82 % ID/g | Brain % ID/g [1]: 0.16 % ID/g | Fat % ID/g [1]: 0.90 % ID/g | Femur % ID/g [1]: 2.41 % ID/g | Heart % ID/g [1]: 3.48 % ID/g | Kidney % ID/g [1]: 2.45 % ID/g | Large intestine % ID/g [1]: 2.26 % ID/g | Liver % ID/g [1]: 2.36 % ID/g | Lung % ID/g [1]: 3.56 % ID/g | Muscle % ID/g [1]: 1.99 % ID/g | Pancreas % ID/g [1]: 13.03 % ID/g | Salivary gland % ID/g [1]: 11.31 % ID/g | Small intestine % ID/g [1]: 3.48 % ID/g | Spleen % ID/g [1]: 1.46 % ID/g | Stomach % ID/g [1]: 1.64 % ID/g | Tumor % ID/g [1]: 7.79 % ID/g | Bladder % ID/g (mean, + 0.01 nmole carrier): 2.00 % ID/g | Blood % ID/g (mean, + 0.01 nmole carrier): 11.29 % ID/g | Brain % ID/g (mean, + 0.01 nmole carrier): 0.30 % ID/g | Fat % ID/g (mean, + 0.01 nmole carrier): 0.34 % ID/g | Femur % ID/g (mean, + 0.01 nmole carrier): 3.53 % ID/g | Heart % ID/g (mean, + 0.01 nmole carrier): 4.62 % ID/g | Kidney % ID/g (mean, + 0.01 nmole carrier): 2.96 % ID/g | Large intestine % ID/g (mean, + 0.01 nmole carrier): 1.62 % ID/g | Liver % ID/g (mean, + 0.01 nmole carrier): 3.09 % ID/g | Lung % ID/g (mean, + 0.01 nmole carrier): 6.15 % ID/g | Muscle % ID/g (mean, + 0.01 nmole carrier): 1.88 % ID/g | Pancreas % ID/g (mean, + 0.01 nmole carrier): 4.07 % ID/g | Salivary gland % ID/g (mean, + 0.01 nmole carrier): 7.47 % ID/g | Small intestine % ID/g (mean, + 0.01 nmole carrier): 2.20 % ID/g | Spleen % ID/g (mean, + 0.01 nmole carrier): 2.01 % ID/g | Stomach % ID/g (mean, + 0.01 nmole carrier): 1.49 % ID/g | Tumor % ID/g (mean, + 0.01 nmole carrier): 2.37 % ID/g | Bladder % ID/g [2]: 4.29 % ID/g | Blood % ID/g [2]: 7.55 % ID/g | Brain % ID/g [2]: 0.21 % ID/g | Fat % ID/g [2]: 0.78 % ID/g | Femur % ID/g [2]: 3.25 % ID/g | Heart % ID/g [2]: 3.03 % ID/g | Kidney % ID/g [2]: 2.29 % ID/g | Large intestine % ID/g [2]: 1.53 % ID/g | Liver % ID/g [2]: 2.13 % ID/g | Lung % ID/g [2]: 4.10 % ID/g | Muscle % ID/g [2]: 1.83 % ID/g | Pancreas % ID/g [2]: 5.35 % ID/g | Salivary gland % ID/g [2]: 10.93 % ID/g | Small intestine % ID/g [2]: 1.82 % ID/g | Spleen % ID/g [2]: 1.50 % ID/g | Stomach % ID/g [2]: 1.27 % ID/g | Tumor % ID/g [2]: 3.42 % ID/g | Bladder % ID/g [3]: 1.75 % ID/g | Blood % ID/g [3]: 4.10 % ID/g | Brain % ID/g [3]: 0.12 % ID/g | Fat % ID/g [3]: 1.65 % ID/g | Femur % ID/g [3]: 3.72 % ID/g | Heart % ID/g [3]: 1.84 % ID/g | Kidney % ID/g [3]: 2.01 % ID/g | Large intestine % ID/g [3]: 2.35 % ID/g | Liver % ID/g [3]: 1.16 % ID/g | Lung % ID/g [3]: 2.57 % ID/g | Muscle % ID/g [3]: 1.97 % ID/g | Pancreas % ID/g [3]: 4.67 % ID/g | Salivary gland % ID/g [3]: 8.31 % ID/g | Small intestine % ID/g [3]: 1.64 % ID/g | Spleen % ID/g [3]: 0.96 % ID/g | Stomach % ID/g [3]: 1.00 % ID/g | Tumor % ID/g [3]: 5.08 % ID/g | Bladder % ID/g [4]: 2.51 % ID/g | Blood % ID/g [4]: 1.90 % ID/g | Brain % ID/g [4]: 0.08 % ID/g | Fat % ID/g [4]: 0.51 % ID/g | Femur % ID/g [4]: 4.26 % ID/g | Heart % ID/g [4]: 0.91 % ID/g | Kidney % ID/g [4]: 1.92 % ID/g | Large intestine % ID/g [4]: 0.65 % ID/g | Liver % ID/g [4]: 0.75 % ID/g | Lung % ID/g [4]: 1.37 % ID/g | Muscle % ID/g [4]: 1.25 % ID/g | Pancreas % ID/g [4]: 1.77 % ID/g | Salivary gland % ID/g [4]: 3.31 % ID/g | Small intestine % ID/g [4]: 0.91 % ID/g | Spleen % ID/g [4]: 0.46 % ID/g | Stomach % ID/g [4]: 0.69 % ID/g | Tumor % ID/g [4]: 3.52 % ID/g | Bladder % ID/g [5]: 4.33 % ID/g | Blood % ID/g [5]: 4.14 % ID/g | Brain % ID/g [5]: 0.09 % ID/g | Fat % ID/g [5]: 0.85 % ID/g | Femur % ID/g [5]: 3.43 % ID/g | Heart % ID/g [5]: 2.14 % ID/g | Kidney % ID/g [5]: 2.13 % ID/g | Large intestine % ID/g [5]: 2.08 % ID/g | Liver % ID/g [5]: 1.76 % ID/g | Lung % ID/g [5]: 2.74 % ID/g | Muscle % ID/g [5]: 2.03 % ID/g | Pancreas % ID/g [5]: 10.18 % ID/g | Salivary gland % ID/g [5]: 9.49 % ID/g | Small intestine % ID/g [5]: 2.29 % ID/g | Spleen % ID/g [5]: 1.80 % ID/g | Stomach % ID/g [5]: 1.47 % ID/g | Tumor % ID/g [5]: 8.64 % ID/g | Bladder % ID/g [6]: 2.38 % ID/g | Blood % ID/g [6]: 11.46 % ID/g | Brain % ID/g [6]: 0.23 % ID/g | Fat % ID/g [6]: 0.99 % ID/g | Femur % ID/g [6]: 2.41 % ID/g | Heart % ID/g [6]: 5.54 % ID/g | Kidney % ID/g [6]: 2.91 % ID/g | Large intestine % ID/g [6]: 1.40 % ID/g | Liver % ID/g [6]: 3.31 % ID/g | Lung % ID/g [6]: 6.97 % ID/g | Muscle % ID/g [6]: 1.75 % ID/g | Pancreas % ID/g [6]: 3.36 % ID/g | Salivary gland % ID/g [6]: 6.91 % ID/g | Small intestine % ID/g [6]: 2.70 % ID/g | Spleen % ID/g [6]: 2.06 % ID/g | Stomach % ID/g [6]: 1.23 % ID/g | Tumor % ID/g [6]: 2.33 % ID/g | Bladder % ID/g [7]: 1.73 % ID/g | Blood % ID/g [7]: 5.84 % ID/g | Brain % ID/g [7]: 0.14 % ID/g | Fat % ID/g [7]: 0.89 % ID/g | Femur % ID/g [7]: 4.15 % ID/g | Heart % ID/g [7]: 2.50 % ID/g | Kidney % ID/g [7]: 2.07 % ID/g | Large intestine % ID/g [7]: 1.76 % ID/g | Liver % ID/g [7]: 1.90 % ID/g | Lung % ID/g [7]: 3.45 % ID/g | Muscle % ID/g [7]: 2.41 % ID/g | Pancreas % ID/g [7]: 6.29 % ID/g | Salivary gland % ID/g [7]: 11.15 % ID/g | Small intestine % ID/g [7]: 2.42 % ID/g | Spleen % ID/g [7]: 1.29 % ID/g | Stomach % ID/g [7]: 1.56 % ID/g | Tumor % ID/g [7]: 2.27 % ID/g | Bladder % ID/g [8]: 2.23 % ID/g | Blood % ID/g [8]: 9.94 % ID/g | Brain % ID/g [8]: 0.20 % ID/g | Fat % ID/g [8]: 0.49 % ID/g | Femur % ID/g [8]: 3.06 % ID/g | Heart % ID/g [8]: 4.65 % ID/g | Kidney % ID/g [8]: 2.53 % ID/g | Large intestine % ID/g [8]: 1.62 % ID/g | Liver % ID/g [8]: 2.81 % ID/g | Lung % ID/g [8]: 5.57 % ID/g | Muscle % ID/g [8]: 2.07 % ID/g | Pancreas % ID/g [8]: 3.91 % ID/g | Salivary gland % ID/g [8]: 8.13 % ID/g | Small intestine % ID/g [8]: 2.18 % ID/g | Spleen % ID/g [8]: 1.72 % ID/g | Stomach % ID/g [8]: 1.37 % ID/g | Tumor % ID/g [8]: 2.01 % ID/g | Bladder % ID/g [9]: 6.92 % ID/g | Blood % ID/g [9]: 10.99 % ID/g | Brain % ID/g [9]: 0.22 % ID/g | Fat % ID/g [9]: 0.62 % ID/g | Femur % ID/g [9]: 2.37 % ID/g | Heart % ID/g [9]: 6.95 % ID/g | Kidney % ID/g [9]: 3.41 % ID/g | Large intestine % ID/g [9]: 2.18 % ID/g | Liver % ID/g [9]: 4.38 % ID/g | Lung % ID/g [9]: 7.03 % ID/g | Muscle % ID/g [9]: 1.64 % ID/g | Pancreas % ID/g [9]: 8.17 % ID/g | Salivary gland % ID/g [9]: 11.89 % ID/g | Small intestine % ID/g [9]: 3.66 % ID/g | Spleen % ID/g [9]: 2.16 % ID/g | Stomach % ID/g [9]: 1.81 % ID/g | Tumor % ID/g [9]: 3.08 % ID/g | Bladder % ID/g (mean, carrier not given): 4.53 % ID/g | Blood % ID/g (mean, carrier not given): 9.54 % ID/g | Brain % ID/g (mean, carrier not given): 0.22 % ID/g | Fat % ID/g (mean, carrier not given): 1.07 % ID/g | Femur % ID/g (mean, carrier not given): 2.83 % ID/g | Heart % ID/g (mean, carrier not given): 4.65 % ID/g | Kidney % ID/g (mean, carrier not given): 2.73 % ID/g | Large intestine % ID/g (mean, carrier not given): 1.49 % ID/g | Liver % ID/g (mean, carrier not given): 2.99 % ID/g | Lung % ID/g (mean, carrier not given): 5.72 % ID/g | Muscle % ID/g (mean, carrier not given): 1.78 % ID/g | Pancreas % ID/g (mean, carrier not given): 2.14 % ID/g | Salivary gland % ID/g (mean, carrier not given): 6.93 % ID/g | Small intestine % ID/g (mean, carrier not given): 3.02 % ID/g | Spleen % ID/g (mean, carrier not given): 2.15 % ID/g | Stomach % ID/g (mean, carrier not given): 1.14 % ID/g | Tumor % ID/g (mean, carrier not given): 5.71 % ID/g

From US20240382629A1, “HETEROBIVALENT AND HOMOBIVALENT AGENTS TARGETING FIBROBLAST ACTIVATION PROTEIN ALPHA AND/OR PROSTATE-SPECIFIC MEMBRANE ANTIGEN” (The Johns Hopkins University, priority 2021, published 2024)
